Test results as given in patent US10975084B2, “KDM5 inhibitors” (Merck Sharp & Dohme Corp., priority 2016, dated 2021).
pIC50: −log10 of the molar value.

Target: KDM5B (Homo sapiens (Human), UniProt Q9UGL1)
Test: KDM5B TR-FRET Enzyme Activity Assay
Type: biochemical
Settings: LANCE TR-FRET; 5 nM full-length recombinant KDM5B; ten point titration 100000 nM to 5.08 nM
How it was run: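 Full-length KDM5B from Sf21 cells (5 nM) was preincubated 30 min with compound in HEPES pH 7.3 buffer with ascorbate and 2 μM Fe(II). Reaction with 500 nM biotinylated H3K4Me3 peptide and 500 nM α-ketoglutarate ran 60 min. Product was detected by TR-FRET (Eu-anti-H3K4Me1-2/streptavidin-Dylight 650, 665/615 ratio); IC50 came from a 4-parameter fit.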

Sequence of KDM5B (Q9UGL1 whole entry): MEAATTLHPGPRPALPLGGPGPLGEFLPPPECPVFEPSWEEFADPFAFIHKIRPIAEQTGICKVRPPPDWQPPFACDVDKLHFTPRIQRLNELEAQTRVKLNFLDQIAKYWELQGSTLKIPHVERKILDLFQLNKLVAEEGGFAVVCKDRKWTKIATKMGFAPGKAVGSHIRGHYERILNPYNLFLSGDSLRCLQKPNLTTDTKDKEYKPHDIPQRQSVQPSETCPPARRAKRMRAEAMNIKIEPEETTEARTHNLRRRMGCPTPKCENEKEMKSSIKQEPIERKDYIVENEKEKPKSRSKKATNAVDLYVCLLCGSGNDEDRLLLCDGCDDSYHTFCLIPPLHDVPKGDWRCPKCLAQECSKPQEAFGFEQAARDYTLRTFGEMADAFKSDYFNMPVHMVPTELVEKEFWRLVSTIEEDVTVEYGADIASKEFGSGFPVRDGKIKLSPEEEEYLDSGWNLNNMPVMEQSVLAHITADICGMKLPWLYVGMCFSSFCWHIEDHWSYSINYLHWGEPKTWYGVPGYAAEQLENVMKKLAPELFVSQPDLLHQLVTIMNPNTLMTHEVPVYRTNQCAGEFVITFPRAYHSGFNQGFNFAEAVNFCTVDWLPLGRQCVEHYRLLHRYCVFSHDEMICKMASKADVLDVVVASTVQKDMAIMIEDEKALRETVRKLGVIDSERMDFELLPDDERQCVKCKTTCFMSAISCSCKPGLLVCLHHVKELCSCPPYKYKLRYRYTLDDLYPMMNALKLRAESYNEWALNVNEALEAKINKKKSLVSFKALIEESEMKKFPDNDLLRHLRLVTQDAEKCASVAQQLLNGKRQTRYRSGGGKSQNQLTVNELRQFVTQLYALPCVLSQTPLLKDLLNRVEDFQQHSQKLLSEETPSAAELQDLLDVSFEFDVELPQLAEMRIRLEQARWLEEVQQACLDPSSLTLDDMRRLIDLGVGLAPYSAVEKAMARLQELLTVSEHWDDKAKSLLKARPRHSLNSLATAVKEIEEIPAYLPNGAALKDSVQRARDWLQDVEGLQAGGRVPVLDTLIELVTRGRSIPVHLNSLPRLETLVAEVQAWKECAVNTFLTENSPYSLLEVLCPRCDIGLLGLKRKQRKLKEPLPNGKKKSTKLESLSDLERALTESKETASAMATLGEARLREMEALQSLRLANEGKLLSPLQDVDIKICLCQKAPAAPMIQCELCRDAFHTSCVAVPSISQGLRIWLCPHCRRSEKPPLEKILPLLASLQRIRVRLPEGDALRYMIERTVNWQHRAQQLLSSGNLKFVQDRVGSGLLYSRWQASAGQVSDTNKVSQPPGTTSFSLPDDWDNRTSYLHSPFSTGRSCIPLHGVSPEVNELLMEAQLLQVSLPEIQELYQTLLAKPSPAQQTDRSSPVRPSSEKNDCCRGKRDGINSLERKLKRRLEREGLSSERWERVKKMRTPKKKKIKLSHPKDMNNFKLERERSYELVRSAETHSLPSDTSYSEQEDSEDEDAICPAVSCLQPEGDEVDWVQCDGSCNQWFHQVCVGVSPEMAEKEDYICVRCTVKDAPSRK

Compound	pIC50
COc1ccc(-c2[nH]c3ncnn3c(=O)c2C(C)C)cc1 [Example 11-58, 5-(4-methoxyphenyl)-6-(1-methylethyl) [1,2,4]triazolo[1,5-a]pyrimidin-7(4H)-one]	7.43
Cc1[nH]c2ncnn2c(=O)c1F [Example 8-25, 6-fluoro-5-methyl[1,2,4]triazolo[1,5-a]pyrimidin-7(4H)-one]	4.75
CCCc1cc(=O)n2ncnc2[nH]1 [Example 8-6]	4.32
CC(C)c1c(-c2ccc3c(c2)OCC(=O)N3)[nH]c2ncnn2c1=O [Example 11-102, 7-[6-(1-methylethyl)-7-oxo-4,7-dihydro[1,2,4]triazolo[1,5-a]pyrimidin-5-yl]-2H-1,4-benzoxazin-3(4H)-one]	7.75
CC(C)c1c(C2=CCC(C)(C)CC2)[nH]c2ncnn2c1=O [Example 11-62, 5-(4,4-dimethylcyclohex-1-en-1-yl)-6-(1-methylethyl)[1,2,4]triazolo[1,5-a]pyrimidin-7(4H)-one]	5.99
CCc1c(-c2ccccc2)[nH]c2ncnn2c1=O [Example 8-34, 6-ethyl-5-phenyl[1,2,4]triazolo[1,5-a]pyrimidin-7(4H)-one]	6.29
CC(C)c1c(C2=CCCCC2)[nH]c2ncnn2c1=O [Example 11-29, 5-cyclohex-1-en-1-yl-6-(1-methylethyl)[1,2,4]triazolo[1,5-a]pyrimidin-7(4H)-one]	6.40
CC(C)c1c(-c2ccc(C(F)(F)F)cc2)[nH]c2ncnn2c1=O [Example 11-84, 6-(1-methylethyl)-5-[4-(trifluoromethyl)-phenyl][1,2,4]triazolo[1,5-a]pyrimidin-7(4H)-one]	7.17
CC(C)c1c(-c2ccc(CO)cc2)[nH]c2ncnn2c1=O [Example 11-60, 5-[4-(hydroxymethyl)phenyl]-6-(1-methylethyl)[1,2,4]triazolo[1,5-a]pyrimidin-7(4H)-one]	7.87
O=c1c(C2CCC2)c(-c2ccc(F)cc2)[nH]c2ncnn12 [Example 8-40, 6-cyclobutyl-5-(4-fluorophenyl)[1,2,4]triazolo[1,5-a]pyrimidin-7(4H)-one]	5.99
COC(=O)Cc1c(C)[nH]c2ncnn2c1=O [Example 8-7, methyl (5-methyl-7-oxo-4,7-dihydro[1,2,4]triazolo[1,5-a]pyrimidin-6-yl)acetate]	4.67
Cc1ccc(-c2[nH]c3ncnn3c(=O)c2C(C)C)o1 [Example 11-117, 6-(1-methylethyl)-5-(5-methylfuran-2-yl)[1,2,4]triazolo[1,5-a]pyrimidin-7(4H)-one]	6.26
CC(C)n1cc(-c2cc(=O)n3ncnc3[nH]2)cn1 [Example 8-19, 5-[1-(1-methylethyl)-1H-pyrazol-4-yl][1,2,4]triazolo[1,5-a]pyrimidin-7(4H)-one]	5.81
CC(C)c1c(-c2ccc(N3CCCCC3)nc2)[nH]c2ncnn2c1=O [Example 11-126, 6-(1-methylethyl)-5-(6-piperidin-1-ylpyridin-3-yl)[1,2,4]triazolo[1,5-a]pyrimidin-7(4H)-one]	7.98
CC(C)c1c(-c2cnn(C)c2)[nH]c2ncnn2c1=O [Example 8-38, 6-(1-methylethyl)-5-(1-methyl-1H-pyrazol-4-yl)[1,2,4]triazolo[1,5-a]pyrimidin-7(4H)-one]	7.79
CC(C)c1c(-c2cnn(CCO)c2)[nH]c2ncnn2c1=O [Example 11-111, 5-[1-(2-hydroxyethyl)-1H-pyrazol-4-yl]-6-(1-methylethyl)[1,2,4]triazolo[1,5-a]pyrimidin-7(4H)-one]	7.93
CC(C)c1c(-c2cnn(CCS(C)(=O)=O)c2)[nH]c2ncnn2c1=O [Example 11-47, 6-(1-methylethyl)-5-{1-[2-(methylsulfonyl)ethyl]-1H-pyrazol-4-yl}[1,2,4]triazolo[1,5-a]pyrimidin-7(4H)-one]	8.16
CC(C)c1c(-c2ccc(C#N)nc2)[nH]c2ncnn2c1=O [Example 11-131, 5-[6-(1-methylethyl)-7-oxo-4,7-dihydro[1,2,4]triazolo[1,5-a]pyrimidin-5-yl]pyridine-2-carbonitrile]	7.31
CC(C)c1c(C2=CCCOC2)[nH]c2ncnn2c1=O [Example 11-31, 5-(5,6-dihydro-2H-pyran-3-yl)-6-(1-methylethyl)[1,2,4]triazolo[1,5-a]pyrimidin-7(4H)-one]	6.43
O=c1cc(-c2ccccc2Cl)[nH]c2ncnn12 [Example 8-27, 5-(2-chlorophenyl)[1,2,4]triazolo[1,5-a]pyrimidin-7(4H)-one]	4.99
CC(C)c1c(-c2csc(-c3ccccc3)n2)[nH]c2ncnn2c1=O [Example 11-136, 6-(1-methylethyl)-5-(2-phenyl-1,3-thiazol-4-yl)[1,2,4]triazolo[1,5-a]pyrimidin-7(4H)-one]	6.33
CC(C)c1c(-c2cnn(C(C)(C)CO)c2)[nH]c2ncnn2c1=O [Example 11-107, 5-[1-(2-hydroxy-1,1-dimethylethyl)-1H-pyrazol-4-yl]-6-(1-methylethyl)[1,2,4]triazolo[1,5-a]pyrimidin-7(4H)-one]	8.29
CC(C)c1c(-c2ccc(C(F)(F)F)nc2)[nH]c2ncnn2c1=O [Example 11-132, 6-(1-methylethyl)-5-[6-(trifluoromethyl)pyridin-3-yl][1,2,4]triazolo[1,5-a]pyrimidin-7(4H)-one]	7.38
O=c1cc(-c2ccc(Cl)cc2)[nH]c2ncnn12 [Example 8-26, 5-(4-chlorophenyl)[1,2,4]triazolo[1,5-a]pyrimidin-7(4H)-one]	5.86
O=c1cc(-c2ccc(F)cc2)[nH]c2ncnn12 [Example 8-8, 5-(4-fluorophenyl)[1,2,4]triazolo[1,5-a]pyrimidin-7(4H)-one]	5.89
CCc1c(C(F)(F)F)[nH]c2ncnn2c1=O [Example 8-16, 6-ethyl-5-(trifluoromethyl)[1,2,4]triazolo[1,5-a]pyrimidin-7(4H)-one]	5.80
CC(C)c1c(-c2cnn(Cc3cccnc3)c2)[nH]c2ncnn2c1=O [Example 11-40, 6-(1-methylethyl)-5-[1-(pyridin-3-ylmethyl)-1H-pyrazol-4-yl][1,2,4]triazolo[1,5-a]pyrimidin-7(4H)-one]	8.24
CC(C)c1c(-c2ccc(N3CCN(C(C)C)CC3)cc2)[nH]c2ncnn2c1=O [Example 11-93, 6-(1-methylethyl)-5-{4-[4-(1-methylethyl)piperazin-1-yl]phenyl}[1,2,4]triazolo[1,5-a]pyrimidin-7(4H)-one]	7.81

Further compounds by rising pIC50, results first:

pIC50	Compound
6.47	Cc1c(-c2[nH]c3ncnn3c(=O)c2C(C)C)cnn1-c1ccccc1 [Example 11-114, 6-(1-methylethyl)-5-(5-methyl-1-phenyl-1H-pyrazol-4-yl)[1,2,4]triazolo[1,5-a]pyrimidin-7(4H)-one]
6.51	CC(C)c1c(C2=CC(C)(C)OC(C)(C)C2)[nH]c2ncnn2c1=O [Example 11-81, 6-(1-methylethyl)-5-(2,2,6,6-tetramethyl-3,6-dihydro-2H-pyran-4-yl)[1,2,4]triazolo[1,5-a]pyrimidin-7(4H)-one]
6.87	CC(C)c1c(-c2cccc(F)c2)[nH]c2ncnn2c1=O [Example 11-33, 5-(3-fluorophenyl)-6-(1-methylethyl)[1,2,4]triazolo[1,5-a]pyrimidin-7(4H)-one]
6.95	CC(C)c1c(-c2cc(C3CCC3)cs2)[nH]c2ncnn2c1=O [Example 11-142, 5-(4-cyclobutylthiophen-2-yl)-6-(1-methylethyl)[1,2,4]triazolo[1,5-a]pyrimidin-7(4H)-one]
7.17	CC(C)c1c(-c2ccc(F)nc2)[nH]c2ncnn2c1=O [Example 11-129, 5-(6-fluoropyridin-3-yl)-6-(1-methylethyl)[1,2,4]triazolo[1,5-a]pyrimidin-7(4H)-one]
7.47	COC(=O)c1cccc(-c2[nH]c3ncnn3c(=O)c2C(C)C)c1 [Example 11-80, methyl 3-[6-(1-methylethyl)-7-oxo-4,7-dihydro[1,2,4]triazolo[1,5-a]pyrimidin-5-yl]benzoate]
7.49	CC(C)c1c(-c2ccc(-n3nccn3)cc2)[nH]c2ncnn2c1=O [Example 11-97, 6-(1-methylethyl)-5-[4-(2H-1,2,3-triazol-2-yl)phenyl][1,2,4]triazolo[1,5-a]pyrimidin-7(4H)-one]
7.50	CC(C)c1c(-c2cccc(C(O)C(F)(F)F)c2)[nH]c2ncnn2c1=O (centres unmarked) [Example 11-54, 6-(1-methylethyl)-5-[3-(2,2,2-trifluoro-1-hydroxyethyl)phenyl][1,2,4]triazolo[1,5-a]pyrimidin-7(4H)-one]
7.51	CC(C)c1c(-c2ccc(C(F)(F)CO)nc2)[nH]c2ncnn2c1=O [Example 12-2, 5-[6-(1,1-difluoro-2-hydroxyethyl)pyridin-3-yl]-6-(1-methylethyl)[1,2,4]triazolo[1,5-a]pyrimidin-7(4H)-one]
7.70	CC(C)c1c(-c2ccc(C(O)C(F)(F)F)cc2)[nH]c2ncnn2c1=O (centres unmarked) [Example 11-50, 6-(1-methylethyl)-5-[4-(2,2,2-trifluoro-1-hydroxyethyl)-phenyl][1,2,4]triazolo[1,5-a]pyrimidin-7(4H)-one]
7.98	CC(C)c1c(-c2ccc3c(cnn3C)c2)[nH]c2ncnn2c1=O [Example 11-78, 6-(1-methylethyl)-5-(1-methyl-1H-indazol-5-yl)[1,2,4]triazolo[1,5-a]pyrimidin-7(4H)-one]
8.14	CC(C)c1c(-c2ccc(-c3nccn3C)cc2)[nH]c2ncnn2c1=O [Example 11-90, 6-(1-methylethyl)-5-[4-(1-methyl-1H-imidazol-2-yl)phenyl][1,2,4]triazolo[1,5-a]pyrimidin-7(4H)-one]
8.17	CC(C)c1c(-c2cnn(Cc3cccs3)c2)[nH]c2ncnn2c1=O [Example 11-110, 6-(1-methylethyl)-5-[1-(thiophen-2-ylmethyl)-1H-pyrazol-4-yl][1,2,4]triazolo[1,5-a]pyrimidin-7(4H)-one]
